Test results published in patent US20250160327A1, “USE OF CHROMENE OR CHROMANE DERIVATIVES AS HERBICIDAL AGENTS” (ECOLE POLYTECHNIQUE, priority 2022, published 2025).

Tested on: Arabidopsis thaliana ecotype Col-0 seedlings
Assay: Phytotoxicity test on Arabidopsis thaliana seedlings in hydroponics, visual analysis of chlorosis
Assay type: in vivo
Settings: for herbicidal activity: at the concentration tested (125 pM), 48 h; for Activity after 48h: herbicidal activity, concentration of 125 pM, 48 h after application, seedlings at the cotyledon stage, max 1% DMSO
Description: Biological tests have been carried out under axenic conditions on Arabidopsis thaliana ecotype Col-0 seedlings cultured in hydroponics at the cotyledon stage. Sterilised seeds have been sown in microplates (10 seeds per well containing 200 μL of distilled water) and cultured for 10-13 days at 22° C. under a 16 h/8 h (day/night) photoperiod lighting. The treatment has been carried out by replacing the culture medium with an equivalent volume of water containing the molecule to be tested dissolved in DMSO. The maximum DMSO concentration in the treated wells was 1% by volume. A control has therefore been set up with the presence of DMSO at this concentration. The phytotoxicity of the treatment has been evaluated after 48 h of culture, by visual analysis of the chlorosis induced.
By way of comparison, tests have also been carried out under the same conditions as for compounds (Ia1), (Ia2), (Ia3) and (IC1), but with two comparative compounds not forming part of the invention: • a compound (2) including a diphenol ring in place of the chromene ring, and • a compound (3) including a chromene ring but not including an -L-Ar group. All compounds have been tested at a concentration of 125 pM.
Herbicidal activity is indicated by A for Active in the event that the plant is killed, i.e. when both cotyledons have lost all their green coloration, 48 h after application of the product.
The absence of herbicidal activity is indicated by “N” for Not active, in the case where no biological activity is observed

Structure (SMILES) | herbicidal activity | Activity after 48h
Cc1cc(O)c2c(c1)OC(C)(C)C=C2 [Compound 3] | no herbicidal activity | N
Oc1cc(O)cc(CCc2ccccc2)c1 [Compound 2] | no herbicidal activity | N
